{"source": "paper PMC10651166", "about": "(Journal of acquired immune deficiency syndromes (1999), 2023)", "origin": "cited, not measured here", "test_system": "wild-type virus (HIV)", "details": "protein-adjusted", "data": [{"smiles": "CC(C)CN(C[C@@H](O)[C@H](Cc1ccccc1)NC(=O)O[C@H]1CO[C@H]2OCC[C@H]21)S(=O)(=O)c1ccc(N)cc1", "note": "[Darunavir]", "values": [{"measurement": "EC50", "result": 0.055, "unit": "µg/mL"}]}]}
